Holding throughout (format): cell-based
One experiment has as its target NK1 (Homo sapiens, UniProt P25103). As to the kind of experiment: Signal transduction (ST), intracellular Ca++ (FLIPR), NK1 antagonism. The settings on record: for IC50: read-out: pIC50 NK1 (converted). Put shortly:
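Confluent cells were loaded with 2 μM Fluo3 with probenecid for 1 h at 37°C, then preincubated with antagonist concentration ranges for 20 min at RT before agonist addition. Peak FLIPR calcium transient was taken as signal; IC50 from non-linear regression of sigmoidal curves.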

The target in a further experiment is T1, NK2 (Homo sapiens, UniProt P21452).
T1 sequence (P21452 1-398): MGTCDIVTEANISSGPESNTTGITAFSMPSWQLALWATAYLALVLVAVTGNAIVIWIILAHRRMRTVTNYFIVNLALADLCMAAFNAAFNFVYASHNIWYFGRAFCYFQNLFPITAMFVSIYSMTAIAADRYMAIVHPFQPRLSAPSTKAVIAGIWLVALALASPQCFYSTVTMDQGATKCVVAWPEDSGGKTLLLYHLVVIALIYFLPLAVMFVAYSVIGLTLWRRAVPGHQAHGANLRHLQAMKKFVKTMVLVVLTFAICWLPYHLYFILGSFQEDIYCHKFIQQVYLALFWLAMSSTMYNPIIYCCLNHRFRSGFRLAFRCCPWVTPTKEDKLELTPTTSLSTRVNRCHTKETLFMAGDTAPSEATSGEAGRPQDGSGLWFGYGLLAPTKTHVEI
As to the kind of experiment: Signal transduction (ST), intracellular Ca++ (FLIPR), NK2. Particulars: for IC50: read-out: pIC50 NK2 (converted).

A further experiment concerns the target T2, NK3 (Homo sapiens, UniProt P29371).
T2 sequence (P29371 1-465): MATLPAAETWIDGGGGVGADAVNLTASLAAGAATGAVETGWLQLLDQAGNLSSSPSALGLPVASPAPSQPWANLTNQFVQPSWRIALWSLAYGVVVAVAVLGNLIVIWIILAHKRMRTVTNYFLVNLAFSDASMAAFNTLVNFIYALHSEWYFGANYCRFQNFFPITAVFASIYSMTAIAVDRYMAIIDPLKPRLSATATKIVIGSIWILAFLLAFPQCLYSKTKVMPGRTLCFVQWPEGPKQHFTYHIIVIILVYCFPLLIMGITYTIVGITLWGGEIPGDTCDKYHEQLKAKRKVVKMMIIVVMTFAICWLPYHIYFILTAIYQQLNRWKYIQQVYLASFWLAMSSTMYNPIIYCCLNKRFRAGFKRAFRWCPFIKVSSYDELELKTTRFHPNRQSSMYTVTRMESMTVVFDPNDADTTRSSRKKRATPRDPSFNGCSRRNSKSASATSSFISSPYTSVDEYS
As to the kind of experiment: Signal transduction (ST), intracellular Ca++ (FLIPR), NK3. The settings on record: for IC50: read-out: pIC50 NK3 (converted).

Chain of NK1 (P25103 whole entry): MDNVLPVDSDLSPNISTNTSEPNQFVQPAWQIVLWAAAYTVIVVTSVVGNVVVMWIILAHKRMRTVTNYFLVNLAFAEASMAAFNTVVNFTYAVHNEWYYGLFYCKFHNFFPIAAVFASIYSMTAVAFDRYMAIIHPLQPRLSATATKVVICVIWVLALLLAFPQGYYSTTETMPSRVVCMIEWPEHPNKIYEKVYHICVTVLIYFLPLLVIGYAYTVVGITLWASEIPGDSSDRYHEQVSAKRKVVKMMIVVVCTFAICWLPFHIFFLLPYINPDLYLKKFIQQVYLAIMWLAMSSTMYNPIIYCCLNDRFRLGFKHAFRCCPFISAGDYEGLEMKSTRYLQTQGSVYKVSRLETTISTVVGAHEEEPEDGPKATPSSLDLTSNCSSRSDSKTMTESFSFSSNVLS

Turning to `O=C(c1sccc1CO)N1CCCC(N2CCN([C@H]3CCN(C(=O)c4cc(C(F)(F)F)cc(C(F)(F)F)c4)[C@H](Cc4ccccc4)C3)CC2)C1` (stereo partly drawn) [Compound 97], the values for the IC50 at NK1, on NK2 and at NK3 were 10 nM, 3980 nM and 2510 nM, respectively.
On the same counts, the results for `O=C(c1ccc(CCO)s1)N1CCCC(N2CCN(C3CCN(C(=O)c4cc(C(F)(F)F)cc(C(F)(F)F)c4)C(Cc4ccccc4)C3)CC2)C1` (stereo not drawn) [Compound 98] are 12.6 nM, 5010 nM and 2000 nM.
On to `O=C(c1cc(CCOCc2ccccc2)cs1)N1CCCC(N2CCN([C@H]3CCN(C(=O)c4cc(C(F)(F)F)cc(C(F)(F)F)c4)[C@H](Cc4ccccc4)C3)CC2)C1` (stereo partly drawn) [Compound 99], for which the “pIC50 NK1” value on NK1 turned out to be 6.7. In addition, the “pIC50 NK2” value at NK2 turned out to be 5.2. In addition, on NK3, the “pIC50 NK3” value is 5.5.
Take `O=C(c1cc(C(F)(F)F)cc(C(F)(F)F)c1)N1CC[C@H](N2CCN(C3CCCN(S(=O)(=O)c4csc(COCc5ccccc5)c4)C3)CC2)C[C@H]1Cc1ccccc1` (stereo partly drawn) [Compound 104]: the IC50 on NK1 is 126 nM; on NK2 it was 1260 nM; at NK3, 316 nM.
On the same counts, the results for `CC(=O)OCC(c1ccccc1Cl)N1CCCC(N2CCN(C3CCN(C(=O)c4cc(C(F)(F)F)cc(C(F)(F)F)c4)C(Cc4ccccc4)C3)CC2)C1` (stereo not drawn) [Compound 124] are 398 nM, 5010 nM and 2510 nM.

The record behind these values is US7572786B2, “Substituted 1-piperidin-3-yl-4-piperidin-4-yl-piperazine derivatives and their use as neurokinin antagonists” (Janssen Pharmaceutica, N.V., priority 2002, dated 2009).
